Assay results: a melting point compilation (Tetko et al.)

| SMILES | melting point [°C] |
| --- | --- |
| Nc1ccc2[nH]c(-c3ccccn3)nc2c1 | 189 to 191 |
| Cc1ccc(C(=O)C(O)c2ccc(C)cc2)cc1 (stereo not drawn) | 88 to 90 |
| NS(=O)(=O)c1ccc(S(=O)(=O)Cl)cc1 | 144 to 146 |
| ClCc1coc(-c2cccs2)n1 | 45 to 57 |
| N#CCc1ccc(OCc2ccccc2N)cc1 | 108 to 110 |
| O=C(O)c1ccc(NC(=O)c2ccc(Br)o2)cc1 | 276 to 278 |
| O=Cc1cnc(N2CCCC2)nc1 | 118 to 120 |
| CC(NC(=O)CCl)c1ccc(F)cc1 (stereo not drawn) | 71 to 73 |
| CC1Cc2c(Br)cccc2C(=O)N1 (stereo not drawn) | 135 to 137 |
| NC(N=O)=C1NC=Cc2ccccc21 | 125 to 127 |
| CN(C)c1ccc(C2NCC(CCl)O2)cc1 (stereo not drawn) | 104 to 106 |
| N#Cc1c(N)cc(N)nc1S | 349 to 351 |
| CC1C(=O)NC(=O)C1C (stereo not drawn) | 56 to 58 |
| COc1ccc2c(=O)[nH]cnc2c1 | 251 to 253 |
| O=c1[nH]cnc2nc(NCc3ccco3)sc12 | 279 to 281 |
| COc1cccc(C(=O)O)n1 | 133 to 135 |
| CCOC(=O)N1CCCC(C(=O)O)C1 (stereo not drawn) | 68 to 70 |
| O=[N+]([O-])c1cc(Br)ccc1I | 84 to 86 |
| CC(=O)NC(C(=O)O)C1CCCC1 (stereo not drawn) | 172 to 174 |
| Cc1ccc(Oc2cccc(N(C)C)c2)c(N)c1 | 64 to 66 |
| COc1ccc2cc(C(C)Cl)ccc2c1 (stereo not drawn) | 82 to 84 |
| CCCCCCNC(=O)CCl | 29 to 31 |
| O=S1(=O)CC(Cl)C(Cl)C1 (stereo not drawn) | 130 to 133 |
| OC(CC1CCCCCN1)c1ccccc1 (stereo not drawn) | 36 to 38 |
| COc1ccc2c(c1)C1(CC2)NC(=O)NC1=O (stereo not drawn) | 189 to 191 |

| SMILES | melting point [°C] |
| --- | --- |
| CN(C)Cc1c(O)ccc2c1CCCC2 | 77 to 79 |
| O=C(O)c1ccccc1NC(=O)C(F)(F)F | 167 to 169 |
| Cc1ccn(-c2ccc(C(=O)O)cc2)n1 | 178 to 180 |
| CC(C(=O)Nc1cccc(N)c1)n1cccn1 (stereo not drawn) | 135 to 137 |
| Cc1ccc(N2C(=O)CCC(C(=O)O)C2c2cccs2)cc1 (stereo not drawn) | 249 to 251 |
| Nc1ccc2c(cnn2C(F)F)c1 | 77 to 79 |
| Cc1[nH]c(C(=O)O)c(C)c1C(=O)O | 244 to 246 |
| Cc1cc(F)cc2[nH]c(C(=O)O)cc12 | 261 to 263 |
| COC(=O)c1cccc(CS(=O)(=O)Cl)c1 | 102 to 104 |
| COc1ccc2c(c1)C(=O)CCN2 | 114 to 116 |
| CCn1cc(N)c(=O)c(Br)c1 | 116 to 118 |
| COc1cc(C=O)ccc1OCC(N)=O | 155 to 157 |
| Cc1ccsc1-c1nnc(N)o1 | 147 to 149 |
| CC(C)(C)C(=O)N1CCNCC1 | 52 to 54 |
| O=C(O)C1CCN(c2ccc(S(=O)(=O)N3CCOCC3)cc2[N+](=O)[O-])CC1 | 225 to 227 |
| Cc1cnc(-c2cccc(C(=O)O)c2)s1 | 210 to 212 |
| O=C(O)/C=C/c1ccc(N2CCCS2(=O)=O)cc1 | 252 to 254 |
| O=C(O)c1ccc(-c2nc(C3CC3)n[nH]2)cc1 | 237 to 239 |
| Nc1nnc(-c2ccc3c(c2)OCCO3)o1 | 247 to 249 |
| CC1CNCCC1NC(=O)OC(C)(C)C (stereo not drawn) | 104 to 106 |
| COC(=O)Nc1ccc(N)cc1 | 89 to 91 |
| O=C1Nc2ccc(Br)cc2C12CCCC2 | 201 to 203 |
| COc1ccccc1Nc1ncccc1C(=O)O | 175 to 177 |
| NCc1ccc(C(=O)NCC(N)=O)cc1 | 199 to 201 |
| Cc1sc2nc(CN3CCCCC3)nc(Cl)c2c1C | 61 to 63 |

| SMILES | melting point [°C] |
| --- | --- |
| Cn1c(=O)oc(=O)c2cc([N+](=O)[O-])ccc21 | 180 to 182 |
| Cc1cccc(OC(C)C(=O)O)c1C (stereo not drawn) | 123 to 125 |
| NC(=S)NCCc1cccs1 | 127 to 129 |
| CC(C)c1nc(S(=O)(=O)Cl)c[nH]1 | 162 to 164 |
| CN1C(=O)C(=O)N(CC(=O)O)C1=O | 191 to 193 |
| Nc1nccc(-c2cccs2)n1 | 185 to 187 |
| CC(C)(C)c1noc(-c2ccccc2C(=O)O)n1 | 100 to 102 |
| CN(C)c1cccc(Oc2ccc(C(N)=S)cc2)c1 | 182 to 184 |
| Nc1ncnc2c1ncn2CCCCl | 339 to 341 |
| Ic1ccc(OCc2cccnc2)cc1 | 72 to 74 |
| Cc1nc(C(C)(C)O)n[nH]1 | 185 to 187 |
| CCOc1ccc(NC(=O)CC#N)cc1 | 95 to 100 |
| CCc1cc(C(=O)O)n[nH]1 | 191 to 193 |
| Cc1cc(C)cc(C(=O)N2CCNCC2)c1 | 125 to 127 |
| O=S(=O)(c1ccc2c(c1)CCCN2)N1CCCCC1 | 121 to 123 |
| COC(=O)c1ccncc1C(=O)O | 175 to 177 |
| CC(C)c1sc(N)nc1-c1ccccc1 | 231 to 233 |
| Brc1cnn(-c2nccs2)c1 | 78 to 80 |
| CC(=O)CC(=O)Nc1cccc(Cl)c1 | 105 to 107 |
| Cc1cc(C(=O)O)ncn1 | 129 to 131 |
| O=c1[nH]ccc2occc12 | 193 to 195 |
| O=Cc1cccc(OCC(F)(F)F)c1 | 29 to 31 |
| Cc1n[nH]c(C)c1C(C)C(=O)O (stereo not drawn) | 181 to 183 |
